Laboratory results taken from ChEMBL document CHEMBL5357036, “Latest developments in coumarin-based anticancer agents: mechanism of action and structure-activity relationship studies” (RSC Med Chem, 2024).
Blank lines part the entries; values can stand above or below the molecule they belong to.

What was measured:
AGS = assay: Growth inhibition of human AGS cells assessed as reduction in cell viability measured after 3 days by CCK-8 assay; assay type: functional; details: 72 h, time 3 day
[1] = test system: KATO III stomach cancer cell line; assay: Growth inhibition of human KATO III stomach cancer cell line assessed as reduction in cell viability measured after 3 days by CCK-8 assay; assay type: functional; details: 72 h, time 3 day
SNU1 = assay: Growth inhibition of human SNU1 cells assessed as reduction in cell viability measured after 3 days by CCK-8 assay; assay type: functional; details: SNU1, 72 h, time 3 day
SK-OV-3 = assay: Growth inhibition of human SK-OV-3 cells assessed as reduction in cell viability measured after 3 days by CCK-8 assay; assay type: functional; details: SK-OV-3, 72 h, time 3 day
OVCAR-8 = assay: Growth inhibition of human OVCAR-8 cells assessed as reduction in cell viability measured after 3 days by CCK-8 assay; assay type: functional; details: OVCAR-8, 72 h, time 3 day
BXPC-3 = assay: Growth inhibition of human BXPC-3 cells assessed as reduction in cell viability measured after 3 days by CCK-8 assay; assay type: functional; details: BXPC-3, 72 h, time 3 day
PANC-1 = assay: Growth inhibition of human PANC-1 cells assessed as reduction in cell viability measured after 3 days by CCK-8 assay; assay type: functional; details: PANC-1, 72 h, time 3 day
T-24 = assay: Growth inhibition of human T24 cells assessed as reduction in cell viability measured after 3 days by CCK-8 assay; assay type: functional; details: T-24, 72 h, time 3 day
WiDr = assay: Growth inhibition of human WiDr cells assessed as reduction in cell viability measured after 3 days by CCK-8 assay; assay type: functional; details: 72 h, time 3 day
HepG2 [2] = assay: Growth inhibition of human HepG2 cells assessed as reduction in cell viability measured after 3 days by CCK-8 assay; assay type: functional; details: HepG2, 72 h, time 3 day
SN12C = assay: Growth inhibition of human SN12C cells assessed as reduction in cell viability measured after 3 days by CCK-8 assay; assay type: functional; details: 72 h, time 3 day
K562 [3] = assay: Growth inhibition of human K562 cells assessed as reduction in cell viability measured after 3 days by CCK-8 assay; assay type: functional; details: K562, 72 h, time 3 day
HeLa [4] = assay: Growth inhibition of human HeLa cells assessed as reduction in cell viability measured after 3 days by CCK-8 assay; assay type: functional; details: 72 h, time 3 day
HeLa [5] = assay: Antiproliferative activity against human HeLa cells assessed as inhibition of cell growth incubated for 72 hrs by MTT assay; assay type: functional, cell-based
MCF7 [6] = assay: Cytotoxicity against human MCF7 cells assessed as cell growth inhibition after 48 hrs by MTT assay; assay type: functional, cell-based; details: MCF7, 48 h
MCF7 [7] = assay: Cytotoxicity against human MCF7 cells assessed as reduction in cell growth by MTT assay; assay type: functional, cell-based
DLD-1 = assay: Anticancer activity against human DLD-1 cells assessed as reduction in cell viability; assay type: functional, cell-based
HeLa [8] = assay: Antiproliferative activity against human HeLa cells assessed as reduction in cell viability; assay type: functional, cell-based
MDA-MB-231 [9] = assay: Cytotoxicity against human MDA-MB-231 cells assessed as cell growth inhibition by SRB assay; assay type: functional, cell-based
MDA-MB-231 [10] = assay: Cytotoxicity against human MDA-MB-231 cells assessed as cell growth inhibition incubated for 72 hrs by MTT colorimetric assay; assay type: functional, cell-based; details: MDA-MB-231, 72 h
A549 [11] = assay: Cytotoxicity against human A549 cells assessed as cell growth inhibition incubated for 72 hrs by MTT colorimetric assay; assay type: functional, cell-based; details: A549, 72 h
K562 [12] = assay: Cytotoxicity against human K562 cells assessed as cell growth inhibition incubated for 72 hrs by MTT colorimetric assay; assay type: functional, cell-based; details: K562, 72 h
HeLa [13] = assay: Cytotoxicity against human HeLa cells assessed as cell growth inhibition incubated for 72 hrs by MTT colorimetric assay; assay type: functional, cell-based
[14] = target: Cyclin-dependent kinase inhibitor 1 (p21) (human) (UniProt P38936); assay: Upregulation of p21 gene expression in human HeLa cells assessed fold increase by RT-PCR analysis
A549 [15] = assay: Cytotoxicity against human A549 cells assessed as reduction in cell growth by MTT assay; assay type: functional, cell-based
MDA-MB-231 [16] = assay: Anticancer activity against human MDA-MB-231 cells assessed as reduction in cell viability measured after 72 hrs by MTT assay; assay type: functional, cell-based; details: MDA-MB-231, 72 h
HepG2 [17] = assay: Anticancer activity against human HepG2 cells assessed as reduction in cell viability; assay type: functional, cell-based
HeLa [18] = assay: Antitumor activity against human HeLa cells assessed as inhibition of cell growth by MTT assay; assay type: functional, cell-based
[19] = Cytotoxicity against green monkey COS-7 cells; assay type: toxicity, cell-based; details: green monkey (Chlorocebus aethiops)
HeLa [20] = assay: Cytotoxicity against human HeLa cells assessed as reduction in cell growth by MTT assay; assay type: functional, cell-based
MCF7 [21] = assay: Cytotoxicity against human MCF7 cells assessed as reduction in cell growth measured after 48 hrs by MTT assay; assay type: functional, cell-based; details: MCF7, 48 h
HeLa [22] = assay: Cytotoxicity against human HeLa cells assessed as reduction in cell growth measured after 48 hrs by MTT assay; assay type: functional, cell-based
A549 [23] = assay: Cytotoxicity against human A549 cells assessed as reduction in cell growth measured after 48 hrs by MTT assay; assay type: functional, cell-based; details: A549, 48 h
HeLa [24] = assay: Cytotoxicity against human HeLa cells assessed as cell growth inhibition; assay type: functional, cell-based
MDA-MB-468 = assay: Anticancer activity against human MDA-MB-468 cells assessed as reduction in cell viability incubated for 48 hrs by MTT assay; assay type: functional, cell-based; details: MDA-MB-468, 48 h
HCC1937 = assay: Anticancer activity against human HCC1937 cells assessed as reduction in cell growth incubated for 48 hrs by MTT assay; assay type: functional, cell-based; details: HCC1937, 48 h
MDA-MB-231 [25] = assay: Anticancer activity against human MDA-MB-231 cells assessed as reduction in cell viability incubated for 48 hrs by MTT assay; assay type: functional, cell-based; details: MDA-MB-231, 48 h
Hs-578T = assay: Anticancer activity against human Hs-578T cells assessed as cell growth inhibition by MTT assay; assay type: functional, cell-based
SW-620 = assay: Anticancer activity against human SW620 cells assessed as reduction in cell viability measured after 72 hrs by MTT assay; assay type: functional, cell-based; details: SW-620, 72 h
HCT-116 = assay: Anticancer activity against human HCT-116 cells assessed as reduction in cell viability measured after 72 hrs by MTT assay; assay type: functional, cell-based; details: HCT-116, 72 h
A549 [26] = assay: Antiproliferative activity against human A549 cells assessed as cell growth inhibition measured after 48 hrs by MTT assay; assay type: functional, cell-based; details: A549, 48 h
HT-29 = assay: Antiproliferative activity against human HT-29 cells assessed as cell growth inhibition measured after 48 hrs by MTT assay; assay type: functional, cell-based; details: HT-29, 48 h

Structure (SMILES): CCN(CC)c1ccc2cc(-c3nc4ccccc4n3C)c(=O)oc2c1
GI50 (AGS): < 410 nM | GI50 [1]: < 410 nM | GI50 (SNU1): < 410 nM | GI50 (SK-OV-3): < 410 nM | GI50 (OVCAR-8): < 410 nM | GI50 (BXPC-3): < 410 nM | GI50 (PANC-1): < 410 nM | GI50 (T-24): < 410 nM | GI50 (WiDr): < 410 nM | GI50 (HepG2 [2]): < 410 nM | GI50 (SN12C): < 410 nM | GI50 (K562 [3]): < 410 nM | GI50 (HeLa [4]): < 410 nM

Structure (SMILES): COc1ccc(-c2cc(-c3cc4ccccc4oc3=O)nc(Cc3ccc(F)cc3)n2)cc1
IC50 (MCF7 [6]): 2230 nM

Structure (SMILES): Cc1c(Cc2ccc(NC(=O)Nc3ccc(Br)cc3)nc2)c(=O)oc2cc(O)c(C(C)(C)C)cc12
IC50 (MCF7 [7]): 2560 nM

Structure (SMILES): COc1ccc(-n2nc(C)n(-n3c(-c4cc5ccccc5oc4=O)cs/c3=N\c3ccc(Cl)cc3)c2=O)cc1
IC50 (MDA-MB-231 [9]): 160 nM | IC50 (MDA-MB-231 [10]): 160 nM | IC50 (A549 [11]): 170 nM | IC50 (K562 [12]): 310 nM | IC50 (HeLa [13]): 250 nM

Structure (SMILES): CCOC(=O)c1sc(N/N=C(\C)c2cc3ccccc3oc2=O)nc1C
fold change (FC) [14]: 2.3

Structure (SMILES): Cc1c(Cc2ccc(NC(=O)Nc3ccccc3Cl)nc2)c(=O)oc2cc(O)c(C(C)(C)C)cc12
IC50 (A549 [15]): 4380 nM

Structure (SMILES): Cc1c(Cc2ccc(NC(=O)Nc3cccc(Cl)c3)nc2)c(=O)oc2cc(O)c(C(C)(C)C)cc12
IC50 (HeLa [20]): 2170 nM

Structure (SMILES): COc1ccc2oc(=O)c(/C=C3\SC(=O)N(C(=O)c4ccc(Cl)cc4)C3=O)cc2c1
IC50 (MCF7 [21]): 950 nM | IC50 (HeLa [22]): 950 nM | IC50 (A549 [23]): 950 nM

Structure (SMILES): CN(C)c1ccc2c(c1)O/C(=C(/C#N)c1cc[n+](C)cn1)C=C2C(F)(F)F
IC50 (HeLa [24]): 1100 nM

Structure (SMILES): O=c1oc2ccccc2c(O)c1C(c1ccc(O)cc1O)c1c(O)c2ccccc2oc1=O
IC50 (MDA-MB-468): 15200 nM | IC50 (HCC1937): 20200 nM | IC50 (MDA-MB-231 [25]): 25300 nM | IC50 (Hs-578T): 25700 nM

The next lines start with results.

IC50 (HeLa [5]): 210 nM
Structure (SMILES): Cc1nn(-c2ccccc2)c(=O)n1-n1c(-c2cc3ccccc3oc2=O)cs/c1=N\c1ccc(Cl)cc1

EC50 (DLD-1): 5790 nM
Structure (SMILES): COc1ccc(/C(C)=N/Nc2ncc(C(=O)c3cc4ccccc4oc3=O)s2)cc1

IC50 (HeLa [8]): 9 nM
Structure (SMILES): CCOC(=O)c1sc(N/N=C(\C)c2cc3cc(Br)ccc3oc2=O)nc1C

IC50 (MDA-MB-231 [16]): 14100 nM
Structure (SMILES): COC(=O)c1cc2cc(-c3nc4cc(C)ccn4c3NC(C)(C)C)cc(C(C)C)c2oc1=O

EC50 (HepG2 [17]): 3700 nM
Structure (SMILES): C/C(=N\Nc1ncc(C(=O)c2cc3ccccc3oc2=O)s1)c1ccc(C)cc1

IC50 (HeLa [18]): 1290 nM
Structure (SMILES): O=c1oc2ccccc2cc1-c1csc(N/N=C/c2c3ccccc3c(Cl)c3ccccc23)n1
IC50 [19]: 1660 nM

IC50 (SW-620): 1860 nM | IC50 (HCT-116): 3460 nM
Structure (SMILES): O=C(OCC#CCOc1no[n+]([O-])c1S(=O)(=O)c1ccccc1)c1cc2ccccc2oc1=O

IC50 (A549 [26]): 5180 nM | IC50 (HT-29): 23100 nM
Structure (SMILES): O=c1oc2ccccc2cc1-c1nc(Nc2c3ccccc3nc3ccc(F)cc23)cs1
